Laboratory results taken from the METLIN SMRT retention time set (Domingo-Almenara et al. 2019).

Assay: gradient 5% acetonitrile 3 min, to 50% in 2 min, to 85% in 15 min, held 3 min, 100 µL/min
Details: column: Zorbax Extend-C18 2.1 x 50 mm; eluents: water / acetonitrile, 0.1% formic acid
Method in brief: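 Each retention time is based on an adduct peak selected computationally and verified by manual inspection. Measurements used HPLC–quadrupole time-of-flight mass spectrometry in positive and negative ionization mode on mixtures of ~100 pure standards. Chromatography ran on a Zorbax Extend-C18 column (2.1 × 50 mm, 1.8 μm) at 100 μL/min with water and acetonitrile, each containing 0.1% formic acid, and dead and dwell volumes of 40 μL and 900 μL.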

| RP-LC retention time [s] | SMILES |
| --- | --- |
| 664 | COc1ccc(NC(=O)N2C[C@@H](F)C[C@H]2C(=O)N2CCCCC2)cc1 |
| 831 | Cc1ccc(NC(=O)N2CCC(N3CCN(Cc4ccc(F)cc4)C(=O)C3=O)CC2)cc1Cl |
| 987 | CC(C)Cn1cc(CCNS(=O)(=O)c2ccc(Cl)s2)c2cccnc21 |
| 904 | CNC(=O)N1CCCC(c2cccc(C(=O)N3CCN(c4ccccc4Cl)CC3)c2)C1 (configuration not stated) |
| 683 | Cc1cccc(NC(=O)N2CCCC(Cn3c(C4CC4)nc4cccnc43)C2)c1C (configuration not stated) |
| 719 | O=C(COc1ccc(F)c(F)c1)NCC1CCOCC1 |
| 604 | CC(=O)NCCCCCCNC(C)=O |
| 1100 | Cc1cccc(CNC(=O)c2nnc(-c3ccc(S(=O)(=O)N4CCC(C)CC4)cc3)o2)c1 |
| 732 | COc1cc(OC)cc(C(=O)N2C[C@@H]3C[C@H]2C[C@@H]3NC(=O)c2ccccc2)c1 |
| 978 | Cn1cc2c3c(cccc31)CN(C(=O)Nc1ccccc1C(F)(F)F)CC2 |
| 908 | O=C(Cn1c(-c2cccs2)cc2ccccc21)N1CCN(C(=O)c2ccco2)CC1 |
| 559 | CCOC(=O)N1CCC(NC(=O)C2CCCN(Cc3nc(-c4cccnc4)no3)C2)CC1 (configuration not stated) |
| 779 | Cn1nccc1C(=O)N1CCC(c2nc(-c3ccccc3)no2)C1 (configuration not stated) |
| 1100 | Cc1ccc(S(=O)(=O)CC(=O)Nc2nc(-c3ccc4ccccc4c3)cs2)cc1 |
| 671 | FC(F)(F)c1cccc(CSc2ccc(-n3ccnc3)nn2)c1 |
| 1040 | O=C(Nc1cnc(-c2ccc(Cl)cc2)nc1)c1cccs1 |
| 828 | N#Cc1cccc(NC(=O)Cn2cccc(-c3nc(-c4ccccc4)no3)c2=O)c1 |
| 766 | CCOc1ccccc1NC(=O)Cn1nc2n(c1=O)CCCCC2 |
| 968 | CCc1ccc(NC(=O)N2CCC3(CC2)NC(=O)c2ccc(Cl)cc2N3CC)cc1 |
| 1270 | Cc1cccc(-c2noc(C3CCCN3S(=O)(=O)c3ccc4c(c3)CCC4)n2)c1 (configuration not stated) |
| 821 | Cc1ccc(S(=O)(=O)N2CCCC(Cn3cnc4cccnc43)C2)c(C)c1 (configuration not stated) |
| 948 | COc1ccccc1-c1noc(Cn2ncn3nc(-c4cccs4)cc3c2=O)n1 |

| RP-LC retention time [s] | SMILES |
| --- | --- |
| 707 | CCCN1CCN(S(=O)(=O)c2cc(-c3cc(C(F)(F)F)[nH]n3)sc2C)CC1 |
| 646 | CC1CCN(c2ccc(-c3noc(CN4CCN(CC(=O)NC(C)C)CC4)n3)cn2)CC1 |
| 829 | Cc1ccc(N2CCC(NC(=O)Cc3cccc(F)c3)C2=O)cc1 (configuration not stated) |
| 667 | COc1ccc(CNC(=O)N2CCN(Cc3nc4cc(Cl)ccc4o3)CC2)cc1 |
| 727 | Cc1ccccc1CNC(=O)C1CCN(S(=O)(=O)c2c(C)[nH]c(C)c2C(=O)N2CCCC2)CC1 |
| 612 | CCN(CC)C(=O)N1CC(n2cc(C(=O)N3CCOCC3)nn2)C1 |
| 1170 | CC1CCN(S(=O)(=O)c2ccc(-c3nnc(C(=O)NC(C)CCc4ccccc4)o3)cc2)CC1 (configuration not stated) |
| 684 | COc1cc(CN2CC(c3nc(-c4ccsc4)nn3C)C2)ccc1OC(C)C |
| 1240 | Cc1ccc(-c2noc(Cn3c(=O)n(CC(C)C)c(=O)c4ccccc43)n2)cc1 |
| 715 | Cc1cccc(-c2nc3ccccn3c2NC(=O)Nc2cc(F)ccc2F)c1 |
| 700 | CCOC(=O)C1CCN(C(=O)CN2C(=O)COc3ccc(C(=O)N(CC)CC)cc32)CC1 |
| 803 | O=C(Nc1ccc(F)cc1F)C1CCN(S(=O)(=O)c2cc(C(=O)N3CCCC3)cs2)CC1 |
| 1130 | Cc1ccc(C)c(N2CCN(c3ccnc(SCC(=O)Nc4ccccc4Cl)n3)CC2)c1 |
| 862 | CC1Oc2ccc(-c3csc(NC(=O)c4ccccc4)n3)cc2NC1=O (configuration not stated) |
| 809 | CCOc1ccc2nc(NC(=O)C3CCN(S(=O)(=O)c4cn(CC)cn4)CC3)sc2c1 |
| 823 | CC1(C(=O)NC2CCCC2)Cn2cnc(C(=O)NCCCc3ccccc3)c2C(=O)N1C1CC1 (configuration not stated) |
| 956 | Cc1nccnc1Sc1ccccc1 |
| 715 | COc1ccc(NC(=O)C2CCN(S(=O)(=O)c3ccc4c(c3)NC(=O)CO4)CC2)cc1OC |
| 596 | CC1=C(c2ccc(C)cc2)S(=O)(=O)N=C1N1CCC(NC(=O)c2sccc2C)CC1 |
| 958 | Cc1cccc(NC(=O)CN2C(=O)CCCc3cc(S(=O)(=O)N4CCCCC4)ccc32)c1 |
| 750 | CN(C)CCCOc1nn(Cc2ccccc2)c2ccccc12 |
| 948 | CCCCC(=O)Nc1ccc(SCc2nnc(-c3ccc4c(c3)OCO4)o2)cc1 |

| RP-LC retention time [s] | SMILES |
| --- | --- |
| 652 | COc1ccc(C2C(C(=O)NCC3CCCO3)c3cc(OC)c(OC)cc3C(=O)N2C)cc1OC (configuration not stated) |
| 683 | COc1ccc(CNC(=O)c2ccc(CN3CC(=O)N4CCCCC4C3=O)cc2)cc1 (configuration not stated) |
| 964 | Cc1cc(=O)n(CC(=O)Nc2ccccc2)c(-c2ccccc2)n1 |
| 838 | CCN(C(=O)C1CCCN(c2ncnc3c2nc2n3CCCCC2)C1)c1ccccc1 (configuration not stated) |
| 905 | CC(C)N(Cc1ccccc1)C(=O)C1CCCN(c2ncnc3c2nc2n3CCCCC2)C1 (configuration not stated) |
| 797 | CC1CCN(C(=O)C2CC(=O)N(CCc3c[nH]c4ccc(F)cc34)C2)CC1 (configuration not stated) |
| 659 | COc1ccc(S(=O)(=O)N2CC3CN(C(=O)C4CCCO4)CC(C2)O3)cc1 (configuration not stated) |
| 814 | CCC1Oc2ccc(S(=O)(=O)N3CCC(C(=O)Nc4ccccc4C)CC3)cc2NC1=O (configuration not stated) |
| 821 | O=C(Nc1nccs1)c1cc2cc([N+](=O)[O-])ccc2s1 |
| 862 | O=C(Nc1cc(Cl)ccc1Cl)C1CN(C(=O)c2ccc(F)c(F)c2)C1 |
| 831 | O=C(Cn1cc(C(=O)C2CC2)c2ccccc21)NCc1ccc2c(c1)OCCCO2 |
| 1050 | O=C(Nc1cccc(F)c1)C1CCCN(c2nc3ccsc3c(=O)n2Cc2ccc(F)cc2)C1 (configuration not stated) |
| 732 | CCn1cnc2cc(-c3noc(-c4cc(OC)c(OC)c(OC)c4)n3)ccc21 |
| 769 | CCOc1ccc(S(=O)(=O)N2CCCC(C(=O)NCCOC)C2)cc1C (configuration not stated) |
| 998 | Cc1ccc(OCC(=O)Nc2nnc(SCc3nnc(-c4ccccc4)o3)s2)c(C)c1 |
| 949 | COc1cc(-c2ccc(SCC(=O)c3ccc(C)cc3)nn2)cc(OC)c1OC |
| 633 | CCCN(Cc1ccc(OC)cc1)Cc1cc(=O)n2cc(C)ccc2n1 |
| 1130 | O=C(Cc1cccs1)N1CCc2c([nH]c3ccccc23)C1c1ccccc1 (configuration not stated) |
| 882 | CCCS(=O)(=O)c1nc2ccc(NS(=O)(=O)c3ccccc3F)cc2s1 |
| 755 | COc1ccc(OC)c(NC(=O)C(C)n2cnc3nc4c(cc3c2=O)CCCC4)c1 (configuration not stated) |
| 825 | CCCCC(=O)N1CCCN(C2=NS(=O)(=O)C(c3ccc(F)cc3)=C2C)CC1 |
| 1040 | Cc1ccc(-c2noc(Cc3nc(-c4cccc(Cl)c4)cs3)n2)cc1 |

| RP-LC retention time [s] | SMILES |
| --- | --- |
| 1220 | Cc1ccc(NS(=O)(=O)c2c(C)sc(C)c2-c2cc(C(F)(F)F)on2)cc1C |
| 808 | COc1ccc(N2C(=O)CN(C(C)c3ccccc3)[C@H]3CS(=O)(=O)C[C@H]32)cc1 (some centres not stated) |
| 662 | COc1ccc(-c2nc3cnccn3c2Nc2ccc(C(=O)O)cc2)cc1 |
| 799 | Cc1cc(N2CCCC2)n2nc(-c3ccc(Cl)cc3)c(C)c2n1 |
| 1010 | COc1ccc(-c2noc(C3CCCN3C(=O)c3ccc(C)cc3)n2)cc1 (configuration not stated) |
| 677 | CCOc1ccc(CN(CCOC)Cc2cc(=O)n3cc(Cl)ccc3n2)cc1 |
| 743 | NC(=O)C(=O)c1cn(CC(=O)NC2CCCCC2)c2ccccc12 |
| 863 | O=C(CSc1nnc2c3sc(N4CCCC4)nc3ncn12)Nc1ccc(F)c(F)c1 |
| 770 | CCc1nnc(C2CCN(C(=O)c3ccc(F)cc3F)CC2)s1 |
| 894 | Cc1ccc(NC(=O)C2CCN(S(C)(=O)=O)c3ccccc3O2)c(C)c1 (configuration not stated) |
| 772 | CCn1nccc1C(=O)N1CCCC1c1ccc(OC)cc1 (configuration not stated) |
| 1000 | COc1ccc(N2CC(c3noc(-c4ccc(C)cc4C)n3)CC2=O)cc1OC (configuration not stated) |
| 687 | Cc1cc(=O)n(CC(=O)N2CCCc3ccccc32)c(N2CCOCC2)n1 |
| 646 | O=C(CCC(=O)N1CC2CCCN2c2ccccc21)NCCCN1CCCCC1 (configuration not stated) |
| 1070 | Cc1nc(C2(C)CCN(S(=O)(=O)c3cc(C)c(C)cc3C)CC2)no1 |
| 926 | N#Cc1cccc(NC(=O)Cn2cccc(-c3nc(-c4ccc(Cl)cc4)no3)c2=O)c1 |
| 774 | O=C(NCCc1csc(-c2cccs2)n1)C1CCN(C(=O)Cc2ccc(F)cc2)CC1 |
| 671 | Cc1cnc(CC2CCN(S(=O)(=O)c3cccc(F)c3)C2)n1C(C)C (configuration not stated) |
| 1040 | Cc1ccc(-c2noc(Cn3c(=O)n(CC4CCCO4)c(=O)c4ccccc43)n2)cc1 (configuration not stated) |
| 704 | CCC(=O)Nc1sc2c(c1C(=O)Nc1ccccc1)CCCC2 |

| SMILES | RP-LC retention time [s] |
| --- | --- |
| C/C=C1/CN2CC[C@]34C(=C(C=O)[C@H]1C[C@H]23)Nc1ccccc14 | 606 |
